Data: article PMC4718634, “Murine GPRC6A Mediates Cellular Responses to L-Amino Acids, but Not Osteocalcin Variants” (PLoS ONE, 2016)
“Also recorded” adds a separate entry of the source. Bridge positions count the residues as written; N and C are the ends. Ends that are not written are not given here.

Tests used:
β-TC6 cells = assay: Insulin release from β-TC6 cells; type: cell-based, murine; details: OCN 0.03–100 ng/ml; both glucose concentrations; S3 Fig A
Description: (§1) MIN6 or βTC-6 cells were seeded in 24-well plates at 170,000 cells per well in DMEM (containing 4.5g/L glucose, 10 mM HEPES, 100 U/ml penicillin, 100 μg/ml streptomycin and 15% de-complemented FBS) and incubated at 37°C / 5% CO2 for 72 h. Cells were then washed with 500 μl PBS and incubated in 500 μl deprivation media (DMEM with zero glucose, 10 mM HEPES, 1 mM Na-pyruvate, 100 U/ml penicillin, 100 μg/ml streptomycin, 15% de-complemented FBS) for 2 h at 37°C. Media was aspirated and after washing with 500 μl PBS, cells were treated with 250 μl of Krebs buffer (250 mM NaCl, 5.9 mM KCl, 1.2 mM MgCl2, 1.3 mM CaCl2, 25 mM HEPES, 0.1% BSA (w/v), and 2 mM or 16.7 mM glucose; pH 7.4) in the presence or absence of test compound. After incubation for 2 h at 37°C, the assay was terminated by placing the plates on ice and supernatants were transferred to a 96-well plate in preparation for insulin ELISA (Alpco) following manufacturer’s instructions. The cell monolayer was washed twice with 500 μl of PBS and then lysed using 250 μl of 1 N NaOH prior to protein measurement by the method of Bradford (1976).
(§2) Concentration-response data were analysed using a three or four parameter logistic function (Motulsky & Christopoulos, 2004) to generate estimates of agonist potency (LogEC50). Data for all HEK293 assays represent the mean ± SEM of at least three independent experiments (except cell impedance, n = 2). For GLP-1 release, the data represent mean ± SEM of three to five independent experiments (except for OCN, wash; n = 2). For insulin release assays, data represent the mean ± SEM of three independent experiments (except for islet studies; n = 2). Insulin release data were normalised to the response to vehicle in either low or high [glucose]. Statistical analysis for GLP-1 release data were performed by one-way ANOVA, followed by Sidak’s multiple comparisons test (treating wash / no wash datasets separately). Statistical analyses for insulin release data were performed by two-way ANOVA (with [glucose] and drug treatment as group variables), followed by Sidak’s multiple comparisons test. Where only high [glucose] groups were evaluated, statistical analysis was by one-way ANOVA followed by Sidak’s multiple comparisons test.

GLUTag cells = assay: GLP-1 release from GLUTag cells; type: cell-based, murine; details: 0.01–10 ng/ml; with or without cell washing; 2 h; Fig 6A
Description: Intestinal L-cell model GLUTag cells were seeded in 24-well plates coated with Matrigel and incubated for 6 days in DMEM with 10% FBS, 100 U/ml penicillin, 100 μg/ml streptomycin at 37°C in 5% CO2 and grown for 4–5 days. Where indicated, cells were washed (1 or 2 x 1h) with Krebs-HEPES buffer (20 mM HEPES, 118 mM NaCl, 4.7 mM KCl, 1.2 mM MgSO4, 5 mM NaHCO3, 1.2 mM KH2PO4, 2.5 mM CaCl2, 5.5 mM glucose, 0.2% BSA (w/v), pH 7.2) containing vildagliptin (300 μM) prior to addition of test compounds in the same buffer. After 2 h incubation at 37°C in 5% CO2, the supernatant was recovered and centrifuged at 500 rpm for 5 min. Where used, NPS-2143 pre-treatment was for 30 min.
GLP-1 content in the cell supernatant was measured by ELISA (EGLP-35K, Millipore), according to manufacturer’s instructions after overnight incubation of 15 μl supernatant in 100 μl Krebs-HEPES buffer at 4°C. After 5 x washes, 200 μl of detection conjugate was added and incubated for 2 h at RT. After 3 x washes the reaction was developed with 200 μl of diluted substrate (1:200) for 20 min and terminated by addition of 50 μl stop solution. After 5 min, fluorescence was then measured using 355 nm excitation and 460 nm emission, transforming the obtained signal into pmol GLP-1/well/ml and corrected for GLUTag cell protein content as determined using the method of Bradford (1976).
as §2

mGPRC6A (mouse GPRC6A) [1] = target: T1, mGPRC6A (mouse GPRC6A) (Mus musculus, UniProt Q8K4Z6); assay: Cyclic AMP accumulation, FlpIn-TREx-HEK293-mGPRC6A cells; type: cell-based; details: 30 min, 0.5 mM IBMX; Alphascreen; Fig 3A
T1 sequence (Q8K4Z6 21-928): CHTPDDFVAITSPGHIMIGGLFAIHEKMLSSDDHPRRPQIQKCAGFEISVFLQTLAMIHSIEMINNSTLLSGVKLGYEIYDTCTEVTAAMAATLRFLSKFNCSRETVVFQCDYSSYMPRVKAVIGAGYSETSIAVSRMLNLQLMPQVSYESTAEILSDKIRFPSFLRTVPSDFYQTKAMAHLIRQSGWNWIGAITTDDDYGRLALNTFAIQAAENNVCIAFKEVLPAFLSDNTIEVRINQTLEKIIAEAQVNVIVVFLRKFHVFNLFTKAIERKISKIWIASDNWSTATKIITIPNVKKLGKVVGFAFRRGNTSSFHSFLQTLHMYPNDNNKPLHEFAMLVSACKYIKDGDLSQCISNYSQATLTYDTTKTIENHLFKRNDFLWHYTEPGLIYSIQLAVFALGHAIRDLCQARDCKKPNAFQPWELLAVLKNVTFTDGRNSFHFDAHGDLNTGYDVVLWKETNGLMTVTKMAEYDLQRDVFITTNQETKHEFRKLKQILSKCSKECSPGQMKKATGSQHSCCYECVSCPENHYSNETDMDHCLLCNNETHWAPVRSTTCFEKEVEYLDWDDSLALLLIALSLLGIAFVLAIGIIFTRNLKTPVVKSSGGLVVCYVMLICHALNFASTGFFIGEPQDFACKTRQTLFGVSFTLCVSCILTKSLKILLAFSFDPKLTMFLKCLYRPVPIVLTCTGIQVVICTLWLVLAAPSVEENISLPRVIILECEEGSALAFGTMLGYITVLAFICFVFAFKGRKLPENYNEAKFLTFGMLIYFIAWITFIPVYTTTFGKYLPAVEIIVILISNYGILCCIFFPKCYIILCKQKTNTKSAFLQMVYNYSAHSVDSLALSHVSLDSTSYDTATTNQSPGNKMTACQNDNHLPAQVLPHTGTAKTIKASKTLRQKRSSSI
Description: (§3) pcDNA 5/FRT/TO constructs were isogenically integrated into a FlpIn-TREx-HEK293 cell line (Life Technologies). FlpIn-TREx-HEK293-mGPRC6A and FlpIn-TREx-HEK293-hGPRC6A cells were then selected using 600 μg/ml hygromycin and 5 μg/ml blasticidin and grown in culture medium consisting of Dulbecco’s Modified Eagle Medium (DMEM), supplemented with 10% (v/v) foetal bovine serum (FBS) at 37°C in 5% CO2 and were sub-cultured in a 1:3 ratio every 3–4 days. Cells were cultured overnight in the presence of 1 μg/ml tetracycline to induce GPRC6A expression. […] 48 h after transfection, cells were selected using 3 μg/ml puromycin and grown as above.
HEK293-mGPRC6A cells were seeded at a density of 10^5 cells per well into PDL-coated 96-well plates and incubated overnight in DMEM, supplemented with 10% FBS (v/v) at 37°C in 5% CO2. Cells were then incubated in 90 μl of stimulation buffer (HBSS containing 5 mM HEPES, 0.1% BSA (w/v), 0.5 mM IBMX; pH 7.4) for 30 min at 37°C. Test compounds (10 μl at 10 x final) were added and cells were incubated for an additional 30 min at 37°C. The medium was removed and cells were incubated in 50 μl of ice-cold 100% ethanol. Once evaporated, 100 μl of lysis buffer (5 mM HEPES, 0.1% BSA (w/v), 0.3% Tween-20; pH 7.4) was added to the cells and samples were stored at -20°C until further analysis. Samples were analysed using the Alphascreen® cAMP assay kit (Perkin Elmer) following manufacturer instructions. Briefly, 10 μl of lysates were added to a 384-well Optiplate. After addition of 5 μl of acceptor bead mix, plate was incubated at RT for 30 min followed by addition of 15 μl of donor bead mix. After overnight (16 h) incubation at RT, plates were read using the Envision plate reader.

MIN6 cells = assay: Insulin release from MIN6 cells; type: cell-based, murine; details: mouse OCN 0.03–30 ng/mL, 0.03–100 ng/mL (Fig 6B legend); low and high glucose
Description: as §1, §2

INS-1(832) cells = assay: Label-free cell impedance, INS-1(832) cells; type: cell-based, rat; details: Gprc6a-negative; EBSS, 2.8 mM glucose; Fig 7; two-way ANOVA, *P < 0.05, **P < 0.01 vs Vehicle; listed as synthetic mouse OCN
Description: For INS-1 cells, 100 μl of medium (RPMI 1640 no glucose, 10% FBS, 55 μM β-mercaptoethanol, 1 mM sodium pyruvate, 10 mM HEPES, 100 U/ml penicillin, 100 μg/ml streptomycin, 11.1 mM glucose) was added per well to an E-plate 96 and a background reading taken. Cells were seeded at 2 x 10^4 / well and the plates incubated in the instrument for 48 h. On the day of the experiment, media was changed to EBSS buffer (180 μl; 2.8 mM glucose, 1.8 mM CaCl2, 5.3 mM KCl, 0.8 mM MgSO4, 117 mM NaCl, 26 mM NaHCO3, 1 mM NaH2PO4). After 2 h incubation, cells were stimulated with 20 μl test compound (10 x final) prepared in the same buffer. Data capture and analysis were as for HEK293 cells.

mGPRC6A (mouse GPRC6A) [2] = target: T1, mGPRC6A (mouse GPRC6A); assay: Ca^2+i mobilisation, FlpIn-TREx-HEK293-mGPRC6A cells; type: cell-based
Description: as §3
FlpIn-TREx-HEK293-mGPRC6A cells were seeded into T75 flasks at 70% confluency. Cells were transfected with 15μg of plasmid DNA (Gαq or GαqG66D) with Lipofectamine LTX according to manufacturer's instructions, then incubated for 24h at 37°C in 5% CO2. Cells were plated into 96-well plates (10^5 cells/well) and equilibrated at 37°C in 5% CO2 for 4-6h to adhere, whereupon cells were serum starved overnight at 37°C in 5% CO2. For the assay, cells were washed twice in Ca^2+ assay buffer (150 mM NaCl, 2.6 mM KCl, 1.2 mM MgCl2, 10 mM dextrose, 10 mM HEPES, 2.2 mM CaCl2, 0.5% (w/v) BSA and 4 mM probenecid; pH 7.4). Buffer was then replaced with Ca^2+ assay buffer containing 1μM Fluo-4-AM and incubated for 1h at 37°C in 5% CO2. Cells were washed twice more and replaced with Ca^2+ assay buffer at 37°C. Serial dilutions of test agonists were added by injection in a Flexstation™ (Molecular Devices) and fluorescence was measured at 485nm excitation and 520nm emission wavelengths. Agonist responses were normalised to the peak of response to 100 μM ATP.
as §2, with “Data” for “Concentration-response data were analysed using a three or four parameter logistic function (Motulsky & Christopoulos, 2004) to generate estimates of agonist potency (LogEC50). Data”

GPRC6A = test system: GPRC6A; design: method as in PMID 15576628; details: chimera with goldfish 5.24 receptor and full length GPRC6A; ref [1]; cited from earlier work

With “YLYQWLGAPVPYPDPLEPRREVCELNPDCDELADHIGFQEAYRRFYGPV-NH2/-COOH (disulfide) [human synthetic OCN (acid form), synthetic de-carboxylated human osteocalcin, Federation Bioscience]” the “insulin secretion, OCN” value (β-TC6 cells) was “no significant effect” and the “GLP-1 release, OCN” value (GLUTag cells) was “did not increase GLP-1 release”.
With `C=C[C@@]1(C)CC(=O)[C@]2(O)[C@@]3(C)[C@@H](O)CCC(C)(C)[C@@H]3[C@H](O)[C@H](OC(C)=O)[C@@]2(C)O1` [forskolin] the “stimulation of cAMP accumulation” value (mGPRC6A (mouse GPRC6A) [1]) was “robust increases in cAMP levels”.
With “mouse synthetic OCN: synthetic de-carboxylated mouse osteocalcin, Federation Bioscience (YLGASVPSPDPLEPTREQCELNPACDELSDQYGLKTAYKRIYGITI-OH; disulfide 19-25 (inferred); not fully specified)” the “insulin secretion, OCN” value (MIN6 cells) was “did not affect insulin secretion” and the “change in cell impedance (cell index)” value (INS-1(832) cells) was “significant changes in cell impedance; also recorded: Concentration-dependent increases in cell index”.
For `NCCCC[C@H](N)C(=O)O` [L-lysine], the EC50 (mGPRC6A (mouse GPRC6A) [2]) was 15.8 µM, the “potency at murine GPRC6A (calcium and inositol phosphate, words)” value (mGPRC6A (mouse GPRC6A) [2]; calcium mobilisation and inositol phosphate accumulation, Discussion) was “most potent agonists” and the “rank order of potency, Ca^2+ mobilisation” value (mGPRC6A (mouse GPRC6A) [2]; co-expressing GαqG66D, Fig 1D) was “L-ornithine > L-arginine = L-lysine”. For the same compound, the “agonist response of GPRC6A” value (GPRC6A) was “mediates responses to L-amino acids”.
